Assay [1] has as its target T1, b-Raf (Homo sapiens, UniProt P15056, V600E).
T1 construct: endogenous in cells; host or cells: A2058 human melanoma cells
Description: Raf cellular assay (phospho-Mek1/2 ELISA in A2058 cells). It counts as cell-based. To be noted: Table 2; human melanoma A2058 cells (b-Raf mutation), Mek1/2 Ser217/221 phosphorylation, 1 hour incubation; read-out: pMEK IC50. In short, it runs like this:
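A2058 melanoma cells (B-Raf mutant), seeded overnight in 10% FBS DMEM, were exposed to compounds (11-point 1:3 series, duplicate) for 1 h at 37 °C. Lysates were captured on anti-Mek1-coated plates and Mek1/2 Ser217/221 phosphorylation was read by anti-phospho-Mek1/2 ELISA, HRP/TMB, 450 nm.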
(In general: ELISA stands for enzyme-linked immunosorbent assay.)

The target in assay [2] is T2, b-Raf (Homo sapiens, UniProt P15056).
T2 construct: Full-length wild type b-Raf is expressed in recombinant form and purified from bacterial or insect cells; made in house; host or cells: bacterial or insect cells
The assay is described as follows: Raf biochemical assay (in vitro kinase assay, 32-P transfer from ATP to Mek1). To be noted: full-length wild type b-Raf, Mek1 substrate; for Ki: 25 μM ATP; for inhibition at 1 µM: @ 1 μM compound, read-out: b-Raf % inhib @ 1 μM. The procedure: Compounds of the present invention were evaluated for potency against b-Raf using an in vitro kinase assay. Raf kinase activity is measured in vitro by determining transfer of radiolabeled 32-P phosphate from ATP to the specific Raf substrate Mek1. Full-length wild type b-Raf is expressed in recombinant form and purified from bacterial or insect cells. Recombinant Mek1 is purified from E. coli bacterial cells. In one assay format (designated G1), the full-length wild type Mek1 is used as the b-Raf substrate. In a second assay format (designated G2), the full-length K97R Mek1 mutant is used as the b-Raf substrate.
In vitro kinase assays are performed in solution containing the following; 50 mM Hepes (pH 7.4), 5 nM b-Raf, 0.8 μM Mek1, 10 mM MgCl2, 25 μM ATP, 0.002% (v/v) Tween-20, 5 μg/mL leupeptin, 1.2 mM DTT, 2% (v/v) DMSO, 0.2-1.0 μCi [γ-^32P]ATP per well.
The assays are performed in wells of a 96 well polypropylene round bottom plate, each well containing 43.5 μL assay mix and 1.5 μL inhibitor compound or DMSO vehicle. 15 μL of b-Raf mix is added and the plate is shaken on a plate shaker and preincubated for 10 minutes at ambient temperature. The reaction is started by addition of 15 μL ATP mix and shaking. The reaction is terminated after 40 minutes by addition of 25 μL 0.5 M EDTA (pH 7.4).
60 μL of the stopped reaction is transferred to a well of a 96-well nylon 66 Biodyne A membrane Silent Screen filter plate (Nalge/Nunc: 256081). The wells are filtered and washed five times with 0.85% phosphoric acid. The filter is placed in a tray with about 50 mL 0.85% phosphoric acid and gently rotated for 10 minutes on an orbital shaker. The procedure is repeated once with fresh 0.85% phosphoric acid. Five samples of 0.5 μL of ATP mix are also spotted onto filter paper for calculation of specific activity. The filters are air dried for one hour and sandwiched between cellophane wrap on an Amersham Biosciences Storage Phosphor Screen and developed at least over night. The image is read using a Molecular Dynamics Storm 840 phosphoimager. Volumes of spots are calculated using ImageQuant5.1.
Raf kinase activity is calculated from the specific activity of [32-P] ATP, 32-P incorporation into Mek1, and the concentration of b-Raf.

T1 sequence (P15056 whole entry V600E): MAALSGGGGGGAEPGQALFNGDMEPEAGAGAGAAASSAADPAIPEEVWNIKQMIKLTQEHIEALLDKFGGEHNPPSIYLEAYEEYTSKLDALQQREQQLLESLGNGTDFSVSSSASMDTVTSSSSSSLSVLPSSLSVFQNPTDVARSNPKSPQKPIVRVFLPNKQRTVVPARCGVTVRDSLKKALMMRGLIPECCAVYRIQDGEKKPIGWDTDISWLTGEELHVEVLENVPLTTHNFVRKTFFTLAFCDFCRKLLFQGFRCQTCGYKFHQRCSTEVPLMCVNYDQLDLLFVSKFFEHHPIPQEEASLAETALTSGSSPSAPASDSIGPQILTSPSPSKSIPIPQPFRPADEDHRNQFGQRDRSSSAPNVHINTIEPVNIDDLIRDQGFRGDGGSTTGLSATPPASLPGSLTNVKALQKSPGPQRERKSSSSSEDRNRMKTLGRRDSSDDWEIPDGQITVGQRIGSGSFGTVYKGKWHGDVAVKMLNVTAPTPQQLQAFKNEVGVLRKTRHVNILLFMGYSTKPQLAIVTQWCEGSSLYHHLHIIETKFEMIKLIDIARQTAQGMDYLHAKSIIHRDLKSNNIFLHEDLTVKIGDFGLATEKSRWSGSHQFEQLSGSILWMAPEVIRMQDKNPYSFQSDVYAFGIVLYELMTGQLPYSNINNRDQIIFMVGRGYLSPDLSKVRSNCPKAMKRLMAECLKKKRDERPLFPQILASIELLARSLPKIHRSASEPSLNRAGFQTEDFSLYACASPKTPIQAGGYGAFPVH
T2 sequence (P15056 whole entry): as the sequence (P15056 whole entry V600E) above, with E600V counted along it

The IC50 is the midpoint of a concentration-inhibition curve. By Ki is commonly meant the dissociation constant of the complex between target and ligand, obtained from inhibition or displacement. Low readings indicate a stronger hold on the target, high ones a looser hold on the target. Turning to `Cc1cc2cc(-c3nn(C(C)C)cc3-c3ccnc(NC[C@H](C)O)n3)cnc2[nH]1` [Example B-7, (2S)-1-(4-(1-isopropyl-3-(2-methyl-1H-pyrrolo[2,3-b]pyridin-5-yl)-1H-pyrazol-4-yl)pyrimidin-2-ylamino)propan-2-ol], the IC50 on b-Raf [1] amounted to 4010 nM. Further, at b-Raf [2], the inhibition constant Ki amounted to 10.3 nM.
Turning to `Cc1nc2ncc(-c3nn(C(C)C)cc3-c3ccnc(NC[C@H](C)O)n3)cn2c1C` [Example B-9, (2S)-1-(4-(3-(2,3-dimethylimidazo[1,2-a]pyrimidin-6-yl)-1-isopropyl-1H-pyrazol-4-yl)pyrimidin-2-ylamino)propan-2-ol], on b-Raf [1], the IC50 stood at 9260 nM. At b-Raf [2], the inhibition constant Ki amounted to 2 nM.
The corresponding values for `CC(C)n1cc(-c2ccnc(NC[C@H](C)O)n2)c(-c2cnc3ccn(C)c3n2)n1` [Example B-10] are 5960 nM and 5 nM.
The corresponding values for `CC(C)n1cc(-c2ccnc(NC[C@H](C)O)n2)c(-c2cnc3[nH]cc(Cl)c3c2)n1` [Example B-11, (2S)-1-(4-(3-(3-chloro-1H-pyrrolo[2,3-b]pyridin-5-yl)-1-isopropyl-1H-pyrazol-4-yl)pyrimidin-2-ylamino)propan-2-ol] are 7 nM and less than 0.1 nM.
Regarding `CC(C)n1cc(-c2ccnc(NC[C@H](C)O)n2)c(-c2cnc3c(c2)CCN3)n1` [Example B-12, (2S)-1-(4-(3-(2,3-dihydro-1H-pyrrolo[2,3-b]pyridin-5-yl)-1-isopropyl-1H-pyrazol-4-yl)pyrimidin-2-ylamino)propan-2-ol], the IC50 on b-Raf [1] worked out at 450 nM. Moreover, at b-Raf [2], the affinity corresponds to a Ki of 1.6 nM.
In the case of `C[C@H](O)CNc1nccc(-c2cn(C)nc2-c2cnc3[nH]ccc3c2)n1` [Example B-13, (2S)-1-(4-(1-methyl-3-(1H-pyrrolo[2,3-b]pyridin-5-yl)-1H-pyrazol-4-yl)pyrimidin-2-ylamino)propan-2-ol], on b-Raf [1], the IC50 stood at 6270 nM. At b-Raf [2], this compound showed a Ki of 22.7 nM.
As to `C[C@H](O)CNc1nccc(-c2cn(CC(F)F)nc2-c2cnc3[nH]ccc3c2)n1` [Example B-14, (2S)-1-(4-(1-(2,2-difluoroethyl)-3-(1H-pyrrolo[2,3-b]pyridin-5-yl)-1H-pyrazol-4-yl)pyrimidin-2-ylamino)propan-2-ol], at b-Raf [1], the half-maximal inhibitory concentration (IC50) turned out to be 510 nM. At b-Raf [2], the inhibition at 1 µM was 100% and the affinity, expressed as Ki, was 0.7 nM.
On to `C[C@H](O)CNc1nccc(-c2cn(CC3(C)COC3)nc2-c2cnc3[nH]ccc3c2)n1` [Example B-15, (2S)-1-(4-(1-((3-methyloxetan-3-yl)methyl)-3-(1H-pyrrolo[2,3-b]pyridin-5-yl)-1H-pyrazol-4-yl)pyrimidin-2-ylamino)propan-2-ol], for which, at b-Raf [1], the IC50 is 3250 nM. The inhibition constant (Ki) on b-Raf [2] turned out to be 6.2 nM.
Taken in the same sequence, the figures for `C[C@H](O)CNc1nccc(-c2cn(CC#N)nc2-c2cnc3[nH]ccc3c2)n1` [Example C-1, [4-[2-((S)-2-Hydroxy-propylamino)-pyrimidin-4-yl]-3-(1H-pyrrolo[2,3-b]pyridin-5-yl)-pyrazol-1-yl]-acetonitrile] were 483 nM and 3.9 nM.
For the compound `CC(C)n1cc(-c2ccnc(NC[C@H](C)O)n2)c(-c2cnc3[nH]ncc3c2)n1` [Example D-1, (2S)-1-(4-(1-isopropyl-3-(1H-pyrazolo[3,4-b]pyridin-5-yl)-1H-pyrazol-4-yl)pyrimidin-2-ylamino)propan-2-ol], the half-maximal inhibitory concentration (IC50) on b-Raf [1] was 1980 nM. This compound also gave a Ki on b-Raf [2] of 3.3 nM.
Taken in the same sequence, the figures for `Cc1n[nH]c2ncc(-c3nn(C(C)C)cc3-c3ccnc(NC[C@H](C)O)n3)cc12` [Example D-2, (2S)-1-(4-(1-isopropyl-3-(3-methyl-1H-pyrazolo[3,4-b]pyridin-5-yl)-1H-pyrazol-4-yl)pyrimidin-2-ylamino)propan-2-ol] were 109 nM and 0.3 nM.
Consider `CC(C)n1cc(-c2ccnc(NCc3ccccn3)n2)c(-c2cnc3[nH]ccc3c2)n1` [Example D-3, 4-(1-isopropyl-3-(1H-pyrrolo[2,3-b]pyridin-5-yl)-1H-pyrazol-4-yl)-N-(pyridin-2-ylmethyl)pyrimidin-2-amine], for which the IC50 at b-Raf [1] turned out to be 1810 nM. Further, on b-Raf [2], the inhibition at 1 µM worked out at 93% and affinity was put at a Ki of 8.3 nM.
Taken in the same sequence, the figures for `CC(C)n1cc(-c2ccnc(NCCn3cccn3)n2)c(-c2cnc3[nH]ccc3c2)n1` [Example D-4, 4-[1-isopropyl-3-(1H-pyrrolo[2,3-b]pyridin-5-yl)-1H-pyrazol-4-yl]-N-[2-(1H-pyrazol-1-yl)ethyl]pyrimidin-2-amine] were 149 nM, 100% and less than 0.1 nM.
The corresponding values for `CC(C)n1cc(-c2ccnc(NCCF)n2)c(-c2cnc3[nH]ccc3c2)n1` [Example D-5, N-(2-fluoroethyl)-4-[1-isopropyl-3-(1H-pyrrolo[2,3-b]pyridin-5-yl)-1H-pyrazol-4-yl]pyrimidin-2-amine] are 182 nM, 100% and 0.5 nM.
Consider `CC(C)n1cc(-c2ccnc(NCCO)n2)c(-c2cnc3[nH]ccc3c2)n1` [Example D-6, 2-({4-[1-isopropyl-3-(1H-pyrrolo[2,3-b]pyridin-5-yl)-1H-pyrazol-4-yl]pyrimidin-2-yl}amino)ethanol], for which the IC50 on b-Raf [1] was found to be 369 nM. Further, on b-Raf [2], the inhibition at 1 µM came out at 101% and the Ki turned out to be 1.36 nM.
As to `CC(C)n1cc(-c2ccnc(NCCc3cn[nH]c3)n2)c(-c2cnc3[nH]ccc3c2)n1` [Example D-7, 4-[1-isopropyl-3-(1H-pyrrolo[2,3-b]pyridin-5-yl)-1H-pyrazol-4-yl]-N-[2-(1H-pyrazol-4-yl)ethyl]pyrimidin-2-amine], the IC50 at b-Raf [1] was 386 nM. For the same compound, at b-Raf [2], the inhibition at 1 µM worked out at 99% and the affinity corresponds to a Ki of 0.5 nM.
Taken in the same sequence, the figures for `CC(C)n1cc(-c2ccnc(NCCn3ccccc3=O)n2)c(-c2cnc3[nH]ccc3c2)n1` [Example D-8, 1-[2-({4-[1-isopropyl-3-(1H-pyrrolo[2,3-b]pyridin-5-yl)-1H-pyrazol-4-yl]pyrimidin-2-yl}amino)ethyl]pyridin-2(1H)-one] were 542 nM, 100% and 0.7 nM.
The corresponding values for `CCn1cc(CNc2nccc(-c3cn(C(C)C)nc3-c3cnc4[nH]ccc4c3)n2)cn1` [Example D-10, N-[(1-ethyl-1H-pyrazol-4-yl)methyl]-4-[1-isopropyl-3-(1H-pyrrolo[2,3-b]pyridin-5-yl)-1H-pyrazol-4-yl]pyrimidin-2-amine] are 923 nM, 100% and 2 nM.
Taken in the same sequence, the figures for `Cc1nc(CNc2nccc(-c3cn(C(C)C)nc3-c3cnc4[nH]ccc4c3)n2)c(C)o1` [Example D-11, N-[(2,5-dimethyl-1,3-oxazol-4-yl)methyl]-4-[1-isopropyl-3-(1H-pyrrolo[2,3-b]pyridin-5-yl)-1H-pyrazol-4-yl]pyrimidin-2-amine] were 1320 nM, 100% and 0.8 nM.
Regarding `CC(C)n1cc(-c2ccnc(NCC3CCOC3)n2)c(-c2cnc3[nH]ccc3c2)n1` [Example D-12, 4-[1-isopropyl-3-(1H-pyrrolo[2,3-b]pyridin-5-yl)-1H-pyrazol-4-yl]-N-(tetrahydrofuran-3-ylmethyl)pyrimidin-2-amine], the IC50 on b-Raf [1] is 1520 nM. Besides, on b-Raf [2], the inhibition at 1 µM turned out to be 99% and the Ki was found to be 1.4 nM.
Taken in the same sequence, the figures for `COCCNc1nccc(-c2cn(C(C)C)nc2-c2cnc3[nH]ccc3c2)n1` [Example D-13, 4-[1-isopropyl-3-(1H-pyrrolo[2,3-b]pyridin-5-yl)-1H-pyrazol-4-yl]-N-(2-methoxyethyl)-pyrimidin-2-amine] were 2990 nM, 100% and 0.7 nM.
Taken in the same sequence, the figures for `CCN1CC(CNc2nccc(-c3cn(C(C)C)nc3-c3cnc4[nH]ccc4c3)n2)CC1=O` [Example D-14, 1-ethyl-4-[({4-[1-isopropyl-3-(1H-pyrrolo[2,3-b]pyridin-5-yl)-1H-pyrazol-4-yl]pyrimidin-2-yl}amino)methyl]-pyrrolidin-2-one] were 3140 nM, 99% and 4.8 nM.

Source of the values: US7772246B2 (Pfizer Inc., priority 2007, dated 2010).
